From PubChem BioAssay (NCI)
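All cell lines were grown in 96-well plates and treated with compound for 48 hours. Here, GI50 denotes the concentration required for 50% inhibition of growth. At the TGI there is no net growth.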

What was measured:
Test in all cases: growth of human tumour cells (NCI), 48 h
[1] = tested on: DMS 273 small cell lung
[2] = tested on: U251 CNS
[3] = tested on: SNB-75 CNS
[4] = tested on: UO-31 renal
[5] = tested on: HCT-15 colon
[6] = tested on: OVCAR-5 ovarian
[7] = tested on: NCI-H23 lung
[8] = tested on: SF-539 CNS
[9] = tested on: NCI-H522 lung
[10] = tested on: LOX IMVI melanoma
[11] = tested on: COLO 205 colon
[12] = tested on: NCI-H460 lung
[13] = tested on: NCI-H226 lung
[14] = tested on: SK-MEL-28 melanoma
[15] = tested on: SK-MEL-2 melanoma
[16] = tested on: HOP-92 NSCLC
[17] = tested on: K-562 leukemia
[18] = tested on: TK-10 renal
[19] = tested on: MALME-3M melanoma
[20] = tested on: HOP-62 NSCLC
[21] = tested on: A549 NSCLC
[22] = tested on: DLD-1 colon
[23] = tested on: HCC-2998 colon
[24] = tested on: SF-295 CNS
[25] = tested on: M19-MEL melanoma
[26] = tested on: SR leukemia
[27] = tested on: UACC-62 melanoma
[28] = tested on: CAKI-1 renal
[29] = tested on: SNB-19 CNS
[30] = tested on: KM12 colon
[31] = tested on: SF-268 CNS
[32] = tested on: HOP-18 NSCLC
[33] = tested on: SK-MEL-5 melanoma
[34] = tested on: OVCAR-8 ovarian
[35] = tested on: XF 498 CNS
[36] = tested on: LXFL 529 NSCLC
[37] = tested on: RXF 393 renal
[38] = tested on: RPMI-8226 leukemia
[39] = tested on: OVCAR-4 ovarian
[40] = tested on: 786-0 renal
[41] = tested on: SK-OV-3 ovarian
[42] = tested on: HT29 colon
[43] = tested on: IGROV1 ovarian
[44] = tested on: SN12C renal
[45] = tested on: CCRF-CEM leukemia
[46] = tested on: HCT-116 colon
[47] = tested on: ACHN renal
[48] = tested on: SW-620 colon
[49] = tested on: HL-60(TB) leukemia
[50] = tested on: OVCAR-3 ovarian
[51] = tested on: UACC-257 melanoma
[52] = tested on: SNB-78 CNS
[53] = tested on: M14 melanoma
[54] = tested on: MOLT-4 leukemia
[55] = tested on: KM20L2 colon
[56] = tested on: EKVX NSCLC
[57] = tested on: DMS 114 small cell lung

Q: How did the GI50 [1] turn out when `CCC[CH2][Sn]([CH2]CCC)([O]C(C)=O)[O]C(C)=O` was run?
A: 2190 nM

Q: What about the TGI [1] of the same molecule?
A: 7040 nM

Q: And the GI50 [2]?
A: 888 nM

Q: What about the TGI [2] of the same molecule?
A: 2090 nM

Q: And the GI50 [3]?
A: 1020 nM

Q: What about the TGI [3] of the same molecule?
A: 2630 nM

Q: And the GI50 [4]?
A: 1720 nM

Q: And the TGI [4]?
A: 3130 nM

Q: What about the GI50 [5] of the same molecule?
A: 1430 nM

Q: What about the TGI [5] of the same molecule?
A: 3140 nM

Q: And the GI50 [6]?
A: 1230 nM

Q: And the TGI [6]?
A: 2710 nM

Q: And the GI50 [7]?
A: 1210 nM

Q: And the TGI [7]?
A: 2910 nM

Q: What about the GI50 [8] of the same molecule?
A: 1530 nM

Q: And the TGI [8]?
A: 3190 nM

Q: What about the GI50 [9] of the same molecule?
A: 147 nM

Q: And the TGI [9]?
A: 324 nM

Q: And the GI50 [10]?
A: 916 nM

Q: What about the TGI [10] of the same molecule?
A: 2400 nM

Q: What about the GI50 [11] of the same molecule?
A: 1810 nM

Q: And the TGI [11]?
A: 4290 nM

Q: What about the GI50 [12] of the same molecule?
A: 2600 nM

Q: What about the TGI [12] of the same molecule?
A: 7550 nM

Q: What about the GI50 [13] of the same molecule?
A: 1530 nM

Q: And the TGI [13]?
A: 3010 nM

Q: And the GI50 [14]?
A: 1000 nM

Q: What about the TGI [14] of the same molecule?
A: 2270 nM

Q: What about the GI50 [15] of the same molecule?
A: 542 nM

Q: What about the TGI [15] of the same molecule?
A: 1950 nM

Q: What about the GI50 [16] of the same molecule?
A: 1920 nM

Q: What about the TGI [16] of the same molecule?
A: 4130 nM

Q: What about the GI50 [17] of the same molecule?
A: 299 nM

Q: And the TGI [17]?
A: 2590 nM

Q: What about the GI50 [18] of the same molecule?
A: 1380 nM

Q: And the TGI [18]?
A: 2740 nM

Q: And the GI50 [19]?
A: 994 nM

Q: What about the TGI [19] of the same molecule?
A: 2360 nM

Q: What about the GI50 [20] of the same molecule?
A: 2170 nM

Q: And the TGI [20]?
A: 3900 nM

Q: What about the GI50 [21] of the same molecule?
A: 3650 nM

Q: And the TGI [21]?
A: 15300 nM

Q: What about the GI50 [22] of the same molecule?
A: 1190 nM

Q: And the TGI [22]?
A: 2580 nM

Q: What about the GI50 [23] of the same molecule?
A: 1530 nM

Q: And the TGI [23]?
A: 2920 nM

Q: What about the GI50 [24] of the same molecule?
A: 1850 nM

Q: What about the TGI [24] of the same molecule?
A: 3790 nM

Q: And the TGI [25]?
A: 5120 nM

Q: And the GI50 [26]?
A: 571 nM

Q: And the TGI [26]?
A: 4720 nM

Q: What about the GI50 [27] of the same molecule?
A: 1090 nM

Q: What about the TGI [27] of the same molecule?
A: 2370 nM

Q: What about the GI50 [28] of the same molecule?
A: 638 nM

Q: What about the TGI [28] of the same molecule?
A: 2230 nM

Q: And the GI50 [29]?
A: 1140 nM

Q: What about the TGI [29] of the same molecule?
A: 2350 nM

Q: What about the GI50 [30] of the same molecule?
A: 1660 nM

Q: And the TGI [30]?
A: 3770 nM

Q: What about the GI50 [31] of the same molecule?
A: 1230 nM

Q: And the TGI [31]?
A: 4100 nM

Q: What about the GI50 [32] of the same molecule?
A: 1420 nM

Q: And the TGI [32]?
A: 2720 nM

Q: And the GI50 [33]?
A: 1040 nM

Q: And the TGI [33]?
A: 2400 nM

Q: What about the GI50 [34] of the same molecule?
A: 1900 nM

Q: What about the TGI [34] of the same molecule?
A: 4600 nM

Q: What about the GI50 [35] of the same molecule?
A: 1210 nM

Q: What about the TGI [35] of the same molecule?
A: 2490 nM

Q: What about the GI50 [36] of the same molecule?
A: 241 nM

Q: And the TGI [36]?
A: 1240 nM

Q: And the GI50 [37]?
A: 195 nM

Q: And the TGI [37]?
A: 654 nM

Q: What about the GI50 [38] of the same molecule?
A: 321 nM

Q: And the TGI [38]?
A: 2110 nM

Q: What about the GI50 [39] of the same molecule?
A: 1790 nM

Q: And the TGI [39]?
A: 3500 nM

Q: What about the GI50 [40] of the same molecule?
A: 1480 nM

Q: What about the TGI [40] of the same molecule?
A: 2830 nM

Q: What about the GI50 [41] of the same molecule?
A: 1930 nM

Q: What about the TGI [41] of the same molecule?
A: 3950 nM

Q: What about the GI50 [42] of the same molecule?
A: 1700 nM

Q: And the TGI [42]?
A: 3530 nM

Q: And the GI50 [43]?
A: 1320 nM

Q: And the TGI [43]?
A: 1960 nM

Q: And the GI50 [44]?
A: 1240 nM

Q: And the TGI [44]?
A: 2540 nM

Q: What about the GI50 [45] of the same molecule?
A: 197 nM

Q: What about the TGI [45] of the same molecule?
A: 832 nM

Q: And the GI50 [46]?
A: 1560 nM

Q: What about the TGI [46] of the same molecule?
A: 3260 nM

Q: What about the GI50 [47] of the same molecule?
A: 1440 nM

Q: And the TGI [47]?
A: 2750 nM

Q: And the GI50 [48]?
A: 694 nM

Q: And the TGI [48]?
A: 2650 nM

Q: And the GI50 [49]?
A: 524 nM

Q: What about the TGI [49] of the same molecule?
A: 1450 nM

Q: What about the GI50 [50] of the same molecule?
A: 1530 nM

Q: What about the TGI [50] of the same molecule?
A: 3020 nM

Q: What about the GI50 [51] of the same molecule?
A: 1390 nM

Q: What about the TGI [51] of the same molecule?
A: 3260 nM

Q: What about the GI50 [52] of the same molecule?
A: 511 nM

Q: And the TGI [52]?
A: 2330 nM

Q: And the GI50 [53]?
A: 1740 nM

Q: What about the TGI [53] of the same molecule?
A: 4260 nM

Q: And the GI50 [54]?
A: 505 nM

Q: And the TGI [54]?
A: 4590 nM

Q: What about the GI50 [55] of the same molecule?
A: 1900 nM

Q: And the TGI [55]?
A: 3810 nM

Q: And the GI50 [56]?
A: 1840 nM

Q: And the TGI [56]?
A: 4940 nM

Q: Which results are given for `CC1CC2C(=O)NC(=O)C2c2[nH]c3ccccc3c21` (centres undefined)?
A: TGI [1]: > 100000 nM; TGI [2]: > 100000 nM; TGI [3]: > 100000 nM; TGI [4]: > 100000 nM; TGI [5]: > 100000 nM; TGI [6]: > 100000 nM; TGI [7]: > 100000 nM; TGI [8]: > 100000 nM; TGI [57]: > 100000 nM; TGI [9]: > 100000 nM; TGI [10]: > 100000 nM; TGI [11]: > 100000 nM; TGI [12]: > 100000 nM; TGI [13]: > 100000 nM; TGI [15]: > 100000 nM; TGI [16]: > 100000 nM; TGI [17]: > 100000 nM; TGI [19]: > 100000 nM; TGI [20]: > 100000 nM; TGI [21]: > 100000 nM; TGI [22]: > 100000 nM; TGI [24]: > 100000 nM; TGI [25]: > 100000 nM; TGI [26]: > 100000 nM; TGI [28]: > 100000 nM; TGI [30]: > 100000 nM; TGI [31]: > 100000 nM; TGI [33]: > 100000 nM; TGI [34]: > 100000 nM; TGI [35]: > 100000 nM; TGI [36]: > 100000 nM; TGI [38]: > 100000 nM; TGI [39]: > 100000 nM; TGI [40]: > 100000 nM; TGI [41]: > 100000 nM; TGI [42]: > 100000 nM; TGI [43]: > 100000 nM; TGI [44]: > 100000 nM; TGI [45]: > 100000 nM; TGI [46]: > 100000 nM; TGI [47]: > 100000 nM; TGI [48]: > 100000 nM; TGI [49]: > 100000 nM; TGI [50]: > 100000 nM; TGI [52]: > 100000 nM; TGI [53]: > 100000 nM; TGI [54]: > 100000 nM; TGI [56]: > 100000 nM
